One compound from patent US20250268859A1, “OXAFURAMINE, (1R)-N-ETHYL-1-[(2R)-OXOLAN-2-YL]-2-[…], HYDROCHLORIDE AND DERIVATIVES THEREOF FOR TREATING ALZHEIMER'S DISEASE (AD), […] […], […] WITH LEWY BODIES (DLB), MIXED […], FRON[…] DEGENERATION (FTLD), AND PARKINSON'S DISEASE (PD)” (NLS Pharmaceutics AG, priority 2021, published 2025) can be followed below.

The target in the experiment is T1, M1 (h) (Homo sapiens, UniProt P11229).
T1 construct: Eurofins (contract panel)
T1 sequence (P11229 1-460): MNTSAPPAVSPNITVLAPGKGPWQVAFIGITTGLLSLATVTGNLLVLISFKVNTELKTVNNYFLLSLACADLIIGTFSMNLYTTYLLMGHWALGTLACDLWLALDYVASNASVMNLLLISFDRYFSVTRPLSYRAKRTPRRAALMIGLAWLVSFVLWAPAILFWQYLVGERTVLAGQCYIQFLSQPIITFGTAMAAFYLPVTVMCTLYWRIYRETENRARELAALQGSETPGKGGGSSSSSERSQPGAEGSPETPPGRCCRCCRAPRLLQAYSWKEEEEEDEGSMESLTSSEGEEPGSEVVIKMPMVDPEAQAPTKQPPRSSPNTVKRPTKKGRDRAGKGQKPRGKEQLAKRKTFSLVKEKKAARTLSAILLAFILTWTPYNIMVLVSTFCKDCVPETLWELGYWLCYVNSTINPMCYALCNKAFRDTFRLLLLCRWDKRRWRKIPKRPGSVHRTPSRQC
Put plainly: Radioligand binding panel, M1 (h) (antagonist radioligand). The conditions noted are these: % inhibition of control specific binding. As to the method: Oxafuramine is tested at 10^−5 M, calculated as a % inhibition of control specific binding of a radioactively labeled ligand specific for each target.
This binding profile panel was broadly defined with roughly an equal number of selective, central and peripheral therapeutically relevant targets, including native animal tissues, radioligands and specific enzymes involved in cell cycle regulation in accordance with Eurofins Standard Operating Procedure (www.eurofins.fr).
For radioligand binding experiments, the half maximal inhibitory concentration (IC50) and the half maximal effective concentration (EC50) values were determined (via computer software) by nonlinear regression analysis of the competition curves using Hill equation curve fitting. The inhibition constants (Ki) were calculated using the Cheng-Prusoff equation (Ki=IC50/(1+(L/KD)), where L is the concentration of radioligand in the assay, and KD is the affinity of the radioligand for the receptor.
The results are expressed as a % control specific binding ([measured specific binding/control specific binding]×100) and as a % inhibition of control specific binding (100−[(measured specific binding/control specific binding)×100]) obtained in the presence of the test compounds. […]

The term inhibition denotes the percentage by which the read-out fell short of the control. A high value points to a strong effect. For orientation: % Inhibition means the share of the control response that was lost under treatment. Read a high % Inhibition as a strong effect.

Each structure is given as a SMILES string.

Turning to `CCN[C@H](Cc1ccccc1)[C@H]1CCCO1` [Oxafuramine, (1R)—N-ethyl-1-[(2R)-oxolan-2-yl]-2-phenylethanamine], the “% Inhibition at 10^−5M, M1 (h) (antagonist radioligand)” value is on record as 29.7%. The inhibition at 10 µM (10^−5 M) is ~30%.
